Reference: US20250186456A1, “PYRIMIDINE-FUSED CYCLIC COMPOUND AND PREPARATION METHOD AND USE THEREOF” (Genfleet Therapeutics (Shanghai) Inc., priority 2021, published 2025)
Where two headings read alike, the source gives them in different places.

Legend:
[1] = test system: p-ERK in AGS cells (KRAS G12D mutation); assay: Cell p-ERK assay (HTRF, Advance ERK phospho-T202/Y204 kit); format: cell-based, human; conditions: AGS cells, 3 hours incubation with compound, HTRF, read-out: AGS p-ERK IC50
Method: AGS was purchased from ATCC; catalog No: CRL-1739; F12K was purchased from Gibco; catalog No: 21127-022; FBS was purchased from Gibco; catalog No: 10099-141C; trypsin (containing EDTA) was purchased from Gibco, catalog No: 25200-072; DMSO was purchased from VWRAMRESCO; catalog No: 0231-500 ML; 96-well cell culture plates were purchased from Corning; catalog No: 3599; white opaque 96-well plates were purchased from Cisbio; catalog No: 66PL96025; Advance ERK phospho-T202/Y204 kit was purchased from Cisbio; catalog No: 64AERPEH; cell counters were purchased from CHEMOMETEC; model No: NC-200; microplate reader was purchased from PerkinElmer; model No: Envison.
AGS is an endogenous human gastric adenocarcinoma cell line containing the KRAS^G12D mutation, cultured in F12K+10% FBS medium. On the first day of the experiment, cells in the logarithmic growth phase were taken, digested with trypsin (containing EDTA), collected, and counted. Approximately 20000 cells/well were seeded in a 96-well cell culture plate and cultured overnight in an incubator with 5% CO2. 1000X stock solutions of compounds at a 3.16-fold concentration gradient were prepared using DMSO, and diluted 200-fold into a 5X compound stock solution using the medium described above. The 5X compound stock solution was added to each cell culturing well the day after cell seeding at a final concentration of 1X and a DMSO content of 0.1%. DMSO was used as a control in the experiment. After the compound was added and the incubation was kept for 3 hours, the medium in the culture wells was removed. 50 μl of Cell lysis solution (from Advance ERK phospho-T202/Y204 kit, the same below) was added to each well, mixed well, and incubated for 30 minutes and then 16 μl of the mixed solution was transferred to a white opaque 96-well plate, another 16 μl of cell lysis solution was added to a well as a blank well. After transferring, 4 μl of p-ERK HTRF antibody mixture (from Advance ERK phospho-T202/Y204 kit) was added to each well. After incubation for 4 hours, HTRF fluorescence value (RLU) was read by a microplate reader, and p-ERK level inhibition rate (IR (%)=(RLU control-RLU compound)/(RLU control-RLU blank)×100%) of the compounds was calculated. The concentration of the compounds and corresponding cell p-ERK level inhibition rate were fitted using Prism 8 four-parameters method, and the IC50 value was calculated.

AGS cells (KRAS G12D) = assay: Cell proliferation inhibition assay, 3D, CellTiter-Glo 3D, AGS; format: cell-based, human; conditions: Homo sapiens, 120 h, AGS 3D sphere model, 5 days incubation
Description: AsPC-1 was purchased from ATCC; catalog No: CRL-1682; AGS was purchased from ATCC; catalog No: CRL-1739; RPMI1640 was purchased from Gibco; catalog No: 11875-093 2235123; F12K was purchased from Gibco; catalog No: 21127-022; FBS was purchased from Gibco; catalog No: 10099-141C; trypsin (containing EDTA) was purchased from Gibco; catalog No: 25200-072; CellTiter Glo-3D was purchased from Progema; catalog No: G9683; 384-well sphere plates were purchased from Corning; catalog No: 3830; white opaque 384-well plates were purchased from Corning; catalog No: 3570; cell counters were purchased from CHEMOMETEC; model: NC-200; microplate reader was purchased from PerkinElmer; model: Envison;
AsPC-1 is an endogenous human pancreatic cancer cell containing KRAS^G12D mutation, cultured in RPMI-1640 medium containing 10% FBS; AGS is a human gastric cancer cell line containing KRAS^G12D, cultured in F-12K medium containing 10% FBS. Cells in the logarithmic growth phase were taken, digested with trypsin (containing EDTA), collected, and counted. 800 AsPC-1 cells/well or 400 AGS cells/well, respectively, were seeded in a 384-well sphere plate and cultured overnight at 5% CO2 to establish a 3D cell model. 1000X stock solutions of compounds at a 3.16-fold concentration gradient of were prepared using DMSO, diluted 100-fold into a 10X compound stock solution using the medium described above. The 10X compound stock solution was added to each cell on 2nd day after cell seeding at a final concentration of 1X and a DMSO content of 0.1%. DMSO was used as a control in the experiment, and the medium was used as blank. After the addition of the compounds, the cells were incubated for 5 days. 30 μl of CellTiter-Glo work solution was added to each well, mixed well, and incubated for 30 minutes. After standing at room temperature for 30 minutes, 40 μl of the mixed solution was transferred to an opaque 384-well plate with a white clear bottom. Luminescence chemiluminescence value was read by a microplate reader, and the cell proliferation inhibition rate (IR (%)=(RLU control-RLU compound)/(RLU control-RLU blank)×100%) was calculated. The gradiently diluted concentration of the compounds and corresponding cell proliferation inhibition rate were fitted using XLFit four-parameters method, and the IC50 value was calculated. […] The results of some exemplary compounds are shown in Table 2 (“−” represents untested).

| IC50 [1] [nM] | SMILES | IC50 (AGS cells (KRAS G12D)) [nM] | IC50 ([1]; Homo sapiens) [nM] |
| --- | --- | --- | --- |
| 436 | CCc1cccc2cc(O)cc(-c3cc4nc(OC[C@@]56CCCN5C[C@H](F)C6)nc5c4c(c3Cl)OC[C@@H]3[C@@H]4CC[C@H](CN53)N4)c12 [Example Z381, 4-((5aS,6S,9R)-3-Chloro-13-(((2R,7aS)-2-Fluorotetrahydro-1H-Pyrrolizin-7a (5H)-Yl)Methoxy)-5a,6,7,8,9,10-Hexahydro-5H-6,9-Epiminoazepino[2′,1′: 3,4][1,4]Oxazepino[5,6,7-De]Quinazolin-2-Yl)-5-Ethylnaphthalen-2-Ol] | – | – |
| – | CCc1cccc2cccc(-c3nc4c5c(nc(OC[C@@]67CCCN6C[C@H](F)C7)nc5c3F)N3C[C@H]5CC[C@H](N5)[C@H]3[C@H](CC)O4)c12 [Example Z592, (5S,5aS,6S,9R)-5-ethyl-2-(8-ethylnaphthalen-1-yl)-1-fluoro-12-(((2R,7aS)-2-fluorotetrahydro-1H-pyrrolizin-7a (5H)-yl)methoxy)-5a,6,7,8,9,10-hexahydro-5H-4-oxa-3,10a,11,13,14-pentaaza-6,9-methanonaphtho[1,8-ab]heptalene] | 354 | – |
| – | C#Cc1c(F)ccc2cccc(-c3nc4c5c(nc(OCC67CC(=C)CN6C[C@@H]6C[C@@H]67)nc5c3F)N3C[C@H]5CC[C@H](N5)[C@H]3[C@H](C)O4)c12 (stereo partly drawn) [Example Z605, (5S,5aS,6S,9R)-2-(8-ethynyl-7-fluoronaphthalen-1-yl)-1-fluoro-5-methyl-12-(((1aR,6bS)-5-methylenehexahydrocyclopropa[a]pyrrolizin-6a (4H)-yl)methoxy)-5a,6,7,8,9,10-hexahydro-5H-4-oxa-3,10a,11,13,14-pentaaza-6,9-methanonaphtho[1,8-ab]heptalene] | – | 554 |
| – | C#Cc1c(F)ccc2cccc(-c3nc4c5c(nc(OCC67CC(F)CN6CCC7=C)nc5c3F)N3C[C@H]5CC[C@H](N5)[C@H]3[C@H](C)O4)c12 (stereo partly drawn) [Example Z609, (5S,5aS,6S,9R)-2-(8-ethynyl-7-fluoronaphthalen-1-yl)-1-fluoro-12-((6-fluoro-1-methylenetetrahydro-1H-pyrrolizin-7a (5H)-yl)methoxy)-5-methyl-5a,6,7,8,9,10-hexahydro-5H-4-oxa-3,10a,11,13,14-pentaaza-6,9-methanonaphtho[1,8-ab]heptalene] | – | 49.2 |
| – | C#Cc1c(F)ccc2cccc(-c3nc4c5c(nc(OC[C@]67CCCN6C[C@@H]6C[C@@H]67)nc5c3F)N3C[C@H]5CC[C@H](N5)[C@H]3[C@H](C)O4)c12 [Example Z626-1, (5S,5aS,6S,9R)-2-(8-ethynyl-7-fluoronaphthalen-1-yl)-1-fluoro-12-(((1aR,6aR,6bS)-hexahydrocyclopropa[a]pyrrolizin-6a (4H)-yl)methoxy)-5-methyl-5a,6,7,8,9,10-hexahydro-5H-4-oxa-3,10a, 11,13, 14-pentaaza-6,9-methanonaphtho[1,8-ab]heptalene] | 502 | 411 |
| – | C#Cc1c(F)ccc2cccc(-c3nc4c5c(nc(OCC67CCCN6CC(=CF)C7)nc5c3F)N3C[C@H]5CC[C@H](N5)[C@H]3[C@@H](C)O4)c12 (stereo partly drawn) [Example Z630, (5R,5aS,6S,9R)-2-(8-ethynyl-7-fluoronaphthalen-1-yl)-1-fluoro-12-((2-(fluoromethylene)tetrahydro-1H-pyrrolizin-7a (5H)-yl)methoxy)-5-methyl-5a,6,7,8,9,10-hexahydro-5H-4-oxa-3,10a, 11, 13,14-pentaaza-6,9-methanonaphtho[1,8-ab]heptalene] | – | 729 |
| – | C#Cc1c(F)ccc2cccc(-c3nc4c5c(nc(OCC67CCCN6CC(=C)C7)nc5c3F)N3C[C@H]5CC[C@H](N5)[C@H]3CCO4)c12 (stereo partly drawn) [Example Z640, (6aR,7S, 10R)-2-(8-ethynyl-7-fluoronaphthalen-1-yl)-1-fluoro-13-((2-methylenetetrahydro-1H-pyrrolizin-7a (5H)-yl)methoxy)-5,6,6a,7,8,9,10,11-octahydro-4-oxa-3,11a, 12, 14, 15-pentaaza-7,10-methanocyclohepta[4,5]cycloocta[1,2,3-de]naphthalene] | – | 65.5 |
| – | C=C1CN2C[C@H](F)CC2(COc2nc3c4c(nc(-c5cccc6cccc(C#N)c56)c(F)c4n2)O[C@@H](C)[C@@H]2[C@@H]4CC[C@H](CN32)N4)C1 (stereo partly drawn) [Example Z673, 8-((5S,5aS,6S,9R)-1-fluoro-12-(((2R)-2-fluoro-6-methylenetetrahydro-1H-pyrrolizin-7a (5H)-yl)methoxy)-5-methyl-5a,6,7,8,9,10-hexahydro-5H-4-oxa-3,10a,11,13,14-pentaaza-6,9-methanonaphtho[1,8-ab]heptalen-2-yl)-1-naphthonitrile] | – | 147 |
| – | C=C1CN2C[C@H](F)CC2(COc2nc3c4c(nc(-c5nc(N)cc(C)c5C5CC5)c(F)c4n2)O[C@@H](C)[C@@H]2[C@@H]4CC[C@H](CN32)N4)C1 (stereo partly drawn) [Example Z676, 5-cyclopropyl-6-((5S,5aS,6S,9R)-1-fluoro-12-(((2R)-2-fluoro-6-methylenetetrahydro-1H-pyrrolizin-7a (5H)-yl)methoxy)-5-methyl-5a,6,7,8,9,10-hexahydro-5H-4-oxa-3,10a, 11, 13, 14-pentaaza-6,9-methanonaphtho[1,8-ab]heptalen-2-yl)-4-methylpyridin-2-amine] | 267 | 70 |
| – | C=C1CN2C[C@H](F)CC2(COc2nc3c4c(nc(-c5cc(N)nc(C)c5C5CC5)c(F)c4n2)O[C@@H](C)[C@@H]2[C@@H]4CC[C@H](CN32)N4)C1 (stereo partly drawn) [Example Z680, 5-Cyclopropyl-4-((58,5aS,6S,9R)-1-Fluoro-12-(((2R)-2-Fluoro-6-Methylenetetrahydro-1H-Pyrrolizin-7a (5H)-Yl)Methoxy)-5-Methyl-5a,6,7,8,9,10-Hexahydro-5H-4-Oxa-3,10a,11,13,14-Pentaaza-6,9-Methanonaphtho[1,8-Ab]Heptalen-2-Yl)-6-Methylpyridin-2-Amine] | 386 | 143 |
| – | C#Cc1cccc2c(N)ccc(-c3nc4c5c(nc(OCC67CC(=C)CN6C[C@H](F)C7)nc5c3F)N3C[C@H]5CC[C@H](N5)[C@H]3[C@H](C)O4)c12 (stereo partly drawn) [Example Z686, 5-ethynyl-4-((5S,5aS,6S,9R)-1-fluoro-12-(((2R)-2-fluoro-6-methylenetetrahydro-1H-pyrrolizin-7a (5H)-yl)methoxy)-5-methyl-5a,6,7,8,9,10-hexahydro-5H-4-oxa-3,10a,11,13,14-pentaaza-6,9-methanonaphtho[1,8-ab]heptalen-2-yl) naphthalen-1-amine] | – | 447 |
| – | C#Cc1cccc2cc(N)cc(-c3nc4c5c(nc(OC)nc5c3F)N3C[C@H]5CC[C@H](N5)[C@H]3[C@H](C)O4)c12 [Example Z705, 5-ethynyl-4-((5S,5aS,6S,9R)-1-fluoro-12-methoxy-5-methyl-5a,6,7,8,9,10-hexahydro-5H-4-oxa-3,10a, 11,13,14-pentaaza-6,9-methanonaphtho[1,8-ab]heptalen-2-yl) naphthalen-2-amine] | – | 195 |
